In ChEMBL document CHEMBL4422651, “Revisiting tubercidin against kinetoplastid parasites: Aromatic substitutions at position 7 improve activity and reduce toxicity” (Eur J Med Chem, 2019) one finds selectivity ratio, EC50 and Activity data, which are given here for 13 compounds.

Data set [1] is described as follows: Selectivity index, ratio of EC50 for human MRC5 cells to EC50 for Trypanosoma brucei brucei Squib 427. In kind it is toxicity. To be noted: read-out: Ratio EC50.
Data set [2] deals with Trypanosoma brucei brucei. The experiment in a line: Antitrypanosomal activity against Trypanosoma brucei brucei Squib 427 after 48 hrs by alamar blue assay. Type of data set: functional, organism-based. As to conditions: Squib 427, 48 h.
Data set [3] is described as follows: Selectivity index, ratio of EC50 for human MRC5 cells to EC50 for Trypanosoma brucei rhodesiense STIB-900. Type of data set: toxicity. To be noted: read-out: Ratio EC50.
Data set [4] deals with Trypanosoma brucei rhodesiense. The experiment in a line: Antitrypanosomal activity against Trypanosoma brucei rhodesiense STIB-900 after 48 hrs by alamar blue assay. To be noted: STIB-900, 48 h. Type of data set: functional, organism-based.
Data set [5] relates to MRC5. Put plainly: Cytotoxicity against human MRC5 cells assessed as reduction in cell viability after 3 days by resazurin dye-based assay. As to conditions: MRC5, 72 h. For orientation: The colour change of resazurin is a common sign of viable cells or microbes.
Data set [6] has as its system Trypanosoma cruzi. Put plainly: Antitrypanosomal activity against nifurtimox-sensitive Trypanosoma cruzi Tulahuen CL2 harboring beta-galactosidase infected in human MRC5 cells after 7 days by resazurin dye-based assay. Type of data set: functional, organism-based.

Active and inactive are the calls of the source. The calls are words filed in the database; no cut-off is given here. A value given as a limit tells only on which side of the number the result lay.

As to `COc1ccnc(-c2cn([C@@H]3O[C@H](CO)[C@@H](O)[C@H]3O)c3ncnc(N)c23)c1`, the selectivity ratio in data set [1] was found to be 0.3; in data set [3], 0.9. In addition, the figures for the EC50 in data set [2], in data set [4] and in data set [5] were 25.5 µM, 8.15 µM and 7.59 µM, respectively. Besides, the result in data set [6] was inactive.
In the case of `Cc1ccc(-c2cn([C@@H]3O[C@H](CO)[C@@H](O)[C@H]3O)c3ncnc(N)c23)cc1`, the selectivity ratio in data set [1] came to 0.9. Also, the EC50 – broadly, the concentration at which the effect is half-maximal – in data set [2] was determined as 29.1 µM; in data set [5] it was 26.2 µM. Also, in data set [6], the result was inactive.
For `Nc1ncnc2c1c(-c1ccc3ccccc3c1)cn2[C@@H]1O[C@H](CO)[C@@H](O)[C@H]1O`, the selectivity ratio turned out to be 0.96 in data set [1] and 1.2 in data set [3]. The values for the EC50 in data set [2], in data set [4] and in data set [5] were 7.83 µM, 6.79 µM and 7.53 µM, respectively. For the same compound, the result in data set [6] was inactive.
In the case of `Nc1ncnc2c1c(-c1ccccc1F)cn2[C@@H]1O[C@H](CO)[C@@H](O)[C@H]1O`, the selectivity ratio in data set [1] is 1.8; in data set [3], 2.3. Also, the EC50 worked out at 33.3 µM in data set [2], 26.3 µM in data set [4] and 61 µM in data set [5]. In data set [6], the outcome was inactive.
In the case of `Nc1ncnc2c1c(-c1cccc(Cl)c1)cn2[C@@H]1O[C@H](CO)[C@@H](O)[C@H]1O`, the figures for the selectivity ratio in data set [1] and in data set [3] were 3.3 and 4.8, respectively. Moreover, the EC50 in data set [2] is 9.9 µM; in data set [4] it was 6.88 µM; in data set [5] it was 32.8 µM. Besides, the result in data set [6] was inactive.
For `Nc1ncnc2c1c(-c1cnccn1)cn2[C@@H]1O[C@H](CO)[C@@H](O)[C@H]1O`, in data set [1], the selectivity ratio is 0.28. Besides, the EC50 in data set [2] came out at 1.95 µM; in data set [5] it was 0.55 µM. Besides, the outcome in data set [6] was inactive.
For the compound `Cc1ccc(C(=O)Nc2ccc(S(=O)(=O)O)c3cc(S(=O)(=O)O)cc(S(=O)(=O)O)c23)cc1NC(=O)c1cccc(NC(=O)Nc2cccc(C(=O)Nc3cc(C(=O)Nc4ccc(S(=O)(=O)O)c5cc(S(=O)(=O)O)cc(S(=O)(=O)O)c45)ccc3C)c2)c1` [SURAMIN], the figures for the selectivity ratio in data set [1] and in data set [3] were above 1280 and above 1600, respectively. Also, the EC50 in data set [2] is 0.05 µM; in data set [4], 0.04 µM; in data set [5], above 64 µM.
On to `COc1ccc(-c2cn([C@@H]3O[C@H](CO)[C@@H](O)[C@H]3O)c3ncnc(N)c23)cc1`, for which the selectivity ratio in data set [1] amounted to 0.67. The EC50 in data set [2] worked out at 41.6 µM; in data set [5], 28 µM. The result in data set [6] was inactive.
`Cn1cnc(-c2cn([C@@H]3O[C@H](CO)[C@@H](O)[C@H]3O)c3ncnc(N)c23)c1`: the selectivity ratio in data set [1] turned out to be 4.9. In addition, the values for the EC50 in data set [2] and in data set [5] were 4.76 µM and 23.4 µM, respectively. The result in data set [6] was inactive.
As for `Nc1ncnc2c1c(-c1cncnc1)cn2[C@@H]1O[C@H](CO)[C@@H](O)[C@H]1O`, the selectivity ratio in data set [1] was above 1.2. The EC50 in data set [2] is 52.4 µM; in data set [5], above 64 µM. Also, the result in data set [6] was inactive.
On the same counts, the results for `Nc1ncnc2c1c(-c1ncccn1)cn2[C@@H]1O[C@H](CO)[C@@H](O)[C@H]1O` are 6.3, 2.26 µM, 14.3 µM and “inactive”.
Take `Nc1ncnc2c1c(-c1nccc3ccccc13)cn2[C@@H]1O[C@H](CO)[C@@H](O)[C@H]1O`: the EC50 in data set [2] was above 64 µM; in data set [4], 55.6 µM; in data set [5], above 64 µM. Further, the selectivity ratio in data set [3] was above 1.2. Moreover, the result in data set [6] was inactive.
With `Cn1cncc1-c1cn([C@@H]2O[C@H](CO)[C@@H](O)[C@H]2O)c2ncnc(N)c12`, the selectivity ratio in data set [1] is above 1.9. The EC50 is 33.3 µM in data set [2] and above 64 µM in data set [5]. The outcome in data set [6] was inactive.
